Source: ChEMBL document CHEMBL1201862, “PubChem BioAssay data set” (2004)
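Method: 48-hour compound exposure of cells in 96-well plates, five concentrations, linear interpolation of endpoints. At the GI50, growth is halved.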 The source made the active and inactive calls. Rule as the data show it: active = GI50 up to about 1.1 µM and inactive = higher.

Legend:
Experiment in all cases: inhibition of tumour cell growth, NCI panel, 48 h
OVCAR-8 = tested on: OVCAR-8
HCT-116 = tested on: HCT-116
HCC 2998 = tested on: HCC 2998
HOP-62 = tested on: HOP-62
ACHN = tested on: ACHN
A498 = tested on: A498
TK-10 = tested on: TK-10
HCT-15 = tested on: HCT-15
M19-MEL = tested on: M19-MEL
OVCAR-5 = tested on: OVCAR-5
RXF 631 = tested on: RXF 631
786-0 = tested on: 786-0
SNB-75 = tested on: SNB-75
KM-20L2 = tested on: KM-20L2
CCRF-CEM = tested on: CCRF-CEM
EKVX = tested on: EKVX
SNB-78 = tested on: SNB-78
SNB-19 = tested on: SNB-19
UACC-257 = tested on: UACC-257
SF-295 = tested on: SF-295
SK-MEL-28 = tested on: SK-MEL-28
HL-60 = tested on: HL-60
LXFL 529 = tested on: LXFL 529
SK-OV-3 = tested on: SK-OV-3
SW-620 = tested on: SW-620
K562 = tested on: K562
LOX IMVI = tested on: LOX IMVI
CAKI-1 = tested on: CAKI-1
HOP-92 = tested on: HOP-92
NCI-H460 = tested on: NCI-H460
UACC-62 = tested on: UACC-62
DLD-1 = tested on: DLD-1
Malme-3M = tested on: Malme-3M
SN12C = tested on: SN12C
DMS-273 = tested on: DMS-273
KM12 = tested on: KM12
MOLT-4 = tested on: MOLT-4
COLO 205 = tested on: COLO 205
U-251 = tested on: U-251
A549 = tested on: A549
RXF 393 = tested on: RXF 393
SF-268 = tested on: SF-268
IGROV-1 = tested on: IGROV-1
SF-539 = tested on: SF-539
SK-MEL-2 = tested on: SK-MEL-2
OVCAR-4 = tested on: OVCAR-4
NCI-H522 = tested on: NCI-H522
M14 = tested on: M14
OVCAR-3 = tested on: OVCAR-3
NCI-H23 = tested on: NCI-H23
SK-MEL-5 = tested on: SK-MEL-5
UO-31 = tested on: UO-31
DMS-114 = tested on: DMS-114
NCI-H226 = tested on: NCI-H226
HT-29 = tested on: HT-29
HOP-18 = tested on: HOP-18

In the case of CC(C)(C)OC(=O)Cc1ccc2c(ccn2Cc2ccccc2)c1, the GI50 (OVCAR-8) is reported as 60.3 µM (inactive), the GI50 (HCT-116) is reported as 25.2 µM (inactive) and the GI50 (HCC 2998) is reported as > 100 µM (inactive). For the same compound, the GI50 (HOP-62) was > 100 µM (inactive), the GI50 (ACHN) was > 100 µM (inactive) and the GI50 (A498) was > 100 µM (inactive). For the same compound, the GI50 (TK-10) was 79.6 µM (inactive), the GI50 (HCT-15) was 12.8 µM and the GI50 (M19-MEL) was 62.4 µM (inactive). The GI50 (OVCAR-5) was 42.5 µM (inactive), the GI50 (RXF 631) was 25.9 µM (inactive) and the GI50 (786-0) was 73.8 µM (inactive). For the same compound, the GI50 (SNB-75) was > 100 µM (inactive), the GI50 (KM-20L2) was 26.3 µM (inactive) and the GI50 (CCRF-CEM) was > 100 µM (inactive). The GI50 (EKVX) was 81.8 µM (inactive), the GI50 (SNB-78) was > 100 µM (inactive) and the GI50 (SNB-19) was > 100 µM (inactive). For the same compound, the GI50 (UACC-257) was 39.9 µM (inactive), the GI50 (SF-295) was 75.2 µM (inactive) and the GI50 (SK-MEL-28) was > 100 µM (inactive). For the same compound, the GI50 (HL-60) was 28.2 µM (inactive), the GI50 (LXFL 529) was 46.7 µM (inactive) and the GI50 (SK-OV-3) was > 100 µM (inactive). The GI50 (SW-620) was 67.1 µM (inactive), the GI50 (K562) was > 100 µM (inactive) and the GI50 (LOX IMVI) was 47.4 µM (inactive). For the same compound, the GI50 (CAKI-1) was > 100 µM (inactive), the GI50 (HOP-92) was 79.3 µM (inactive) and the GI50 (NCI-H460) was 68.2 µM (inactive). For the same compound, the GI50 (UACC-62) was 69 µM (inactive), the GI50 (DLD-1) was 57.3 µM (inactive) and the GI50 (Malme-3M) was > 100 µM (inactive). For the same compound, the GI50 (SN12C) was 52.1 µM (inactive), the GI50 (DMS-273) was 48 µM (inactive) and the GI50 (KM12) was 64.3 µM (inactive). For the same compound, the GI50 (MOLT-4) was 18 µM (inactive), the GI50 (COLO 205) was 44.1 µM (inactive) and the GI50 (U-251) was 19.8 µM (inactive). The GI50 (A549) was 48.8 µM (inactive), the GI50 (RXF 393) was 37.1 µM (inactive) and the GI50 (SF-268) was 66.4 µM (inactive). For the same compound, the GI50 (IGROV-1) was > 100 µM (inactive), the GI50 (SF-539) was 93.5 µM (inactive) and the GI50 (SK-MEL-2) was > 100 µM (inactive). For the same compound, the GI50 (OVCAR-4) was 83.6 µM (inactive), the GI50 (NCI-H522) was 44.2 µM (inactive) and the GI50 (M14) was > 100 µM (inactive). The GI50 (OVCAR-3) was 56.2 µM (inactive), the GI50 (NCI-H23) was 44.8 µM (inactive) and the GI50 (SK-MEL-5) was 31.4 µM (inactive). For the same compound, the GI50 (UO-31) was 37.9 µM (inactive), the GI50 (DMS-114) was 18.7 µM (inactive) and the GI50 (NCI-H226) was 35.7 µM (inactive). For the same compound, the GI50 (HT-29) was 17.2 µM (inactive) and the GI50 (HOP-18) was > 100 µM (inactive).
